Reference: US9255090B2, “Heterocyclyl derivatives and their use as prostaglandin D2 receptor modulators” (Actelion Pharmaceuticals Ltd., priority 2012, dated 2016)
pIC50: −log10 of the molar value. Structures can show the parent of a compound that is named as a salt.

Molecular target: hCRTH2 receptor (Homo sapiens (Human), UniProt Q9Y5Y4)
Test: hCRTH2 receptor membranes radioligand (3H-PGD2) displacement assay
Type: binding
Details: 3H-PGD2 radioligand displacement, HEK293-hCRTH2 membranes
Procedure: Biological Assays: Preparation of hCRTH2 Receptor Membranes and Radioligand Displacement Assay:
First, recombinant HEK293-hCRTH2 cells were detached from culture plates into 5 ml buffer A/plate (Buffer A: 5 mM Tris, 1 mM MgCl2-6H2O pH=7.4) using a rubber policeman. Cells were then transferred into centrifugation tubes and centrifuged for 5 min at 400 g. The cell pellet was resuspended in the same buffer and tubes were frozen at −80° C. Cells were thawed and membrane fragments were generated by homogenization using a polytron homogenizer (30 seconds). The membrane fragments were then centrifuged at 3000 g for 20 minutes and resuspended in buffer C (Buffer C: 75 mM Tris, 25 mM MgCl2, 250 mM Saccharose pH 7.4). Aliquots of membrane fragments were stored at −20° C.
Binding assay was performed in a final assay volume of 250 μl. First, 25 μl of test compound, previously diluted in Binding-Buffer (Binding-Buffer: 50 mM Tris-Base, 100 mM NaCl, 1 mM EDTA, 0.1% BSA (protease free), 0.01% NaN3, 10 mM MnCl2, pH 7.0) was placed into each well. After addition of 75 μl Binding-Buffer, 50 μl of the radioligand ^3H-PGD2 (at 2.5 nM (220.000 dpm/well) from ANAWA ART0662) was added to each well. Binding assay was started by addition of 100 μl CRTH2 membrane fragments, reaching a final concentration of 20 μg/well. For non-specific binding, PGD2 was added to the reaction mixture to […] final concentration. This assay mix was incubated for 90 minutes at room temperature and then filtered through a GF/C filter 96-well plate which was pre-soaked for 3 hours in 0.5% polyethyleneimine (PEI). The filter-wells were washed three times with ice cold Binding-Buffer. Then, 40 μl of Microscint-40 (Packard) was added to each well and the retained radioactivity quantified in a Topcount (Packard).

Sequence of hCRTH2 receptor (Q9Y5Y4 whole entry): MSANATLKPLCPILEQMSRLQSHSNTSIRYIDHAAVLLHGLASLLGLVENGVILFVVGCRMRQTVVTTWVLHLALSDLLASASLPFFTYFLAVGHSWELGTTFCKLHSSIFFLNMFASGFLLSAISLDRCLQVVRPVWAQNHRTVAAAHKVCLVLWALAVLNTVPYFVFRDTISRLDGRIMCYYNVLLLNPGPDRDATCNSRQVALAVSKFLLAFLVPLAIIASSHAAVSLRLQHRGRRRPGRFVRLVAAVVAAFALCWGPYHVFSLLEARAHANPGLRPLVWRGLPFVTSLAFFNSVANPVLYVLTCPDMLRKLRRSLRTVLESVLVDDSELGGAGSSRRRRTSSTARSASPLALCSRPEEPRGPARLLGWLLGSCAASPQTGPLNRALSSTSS

Compound | pIC50
COc1ccc(CC(=O)O)cc1-c1ccc(F)c2c1CN(C(=O)[C@@H]1C[C@H]1c1ccc(Cl)cc1)CC2 (racemic) [Example 2, (±)-(3-{2-[trans-2-(4-Chloro-phenyl)-cyclopropanecarbonyl]-5-fluoro-1,2,3,4-tetrahydro-isoquinolin-8-yl}-4-methoxy-phenyl)-acetic acid] | 8.71
COc1ccc(CC(=O)O)cc1-c1ccc(F)c2c1CN(C(=O)[C@@H]1C[C@H]1c1ccccc1Cl)CC2 (racemic) [Example 3, (±)-(3-{2-[trans-2-(2-Chloro-phenyl)-cyclopropanecarbonyl]-5-fluoro-1,2,3,4-tetrahydro-isoquinolin-8-yl}-4-methoxy-phenyl)-acetic acid] | 8.68
COc1ccc(CC(=O)O)cc1-c1ccc(F)c2c1CN(C(=O)[C@@H]1C[C@H]1c1cccc(Cl)c1)CC2 (racemic) [Example 4, (±)-(3-{2-[trans-2-(3-Chloro-phenyl)-cyclopropanecarbonyl]-5-fluoro-1,2,3,4-tetrahydro-isoquinolin-8-yl}-4-methoxy-phenyl)-acetic acid] | 8.27
COc1ccc(CC(=O)O)cc1-c1ccc(F)c2c1CN(C(=O)[C@@H]1C[C@H]1c1ccccc1C)CC2 (racemic) [Example 6, (±)-{3-[5-Fluoro-2-(trans-2-o-tolyl-cyclopropanecarbonyl)-1,2,3,4-tetrahydro-isoquinolin-8-yl]-4-methoxy-phenyl}-acetic acid] | 8.37
COc1ccc(CC(=O)O)cc1-c1ccc(F)c2c1CN(C(=O)CC(c1ccccc1)c1ccc(Cl)cc1)CC2 (racemic) [Example 97, (±)-(3-{2-[3-(4-Chloro-phenyl)-3-phenyl-propionyl]-5-fluoro-1,2,3,4-tetrahydro-isoquinolin-8-yl}-4-methoxy-phenyl)-acetic acid] | 7.32
COc1ccc(CC(=O)O)cc1-c1ccc(F)c2c1CN(C(=O)[C@@H]1C[C@H]1c1ccc(Cl)cc1Cl)CC2 (racemic) [Example 98, (±)-(3-{2-[trans-2-(2,4-Dichloro-phenyl)-cyclopropanecarbonyl]-5-fluoro-1,2,3,4-tetrahydro-isoquinolin-8-yl}-4-methoxy-phenyl)-acetic acid] | 8.00
COc1ccc(CC(=O)O)cc1-c1ccc(F)c2c1CN(C(=O)C(C)Cc1ccccc1)CC2 (racemic) [Example 109, (±)-{3-[5-Fluoro-2-(2-methyl-3-phenyl-propionyl)-1,2,3,4-tetrahydro-isoquinolin-8-yl]-4-methoxy-phenyl}-acetic acid] | 7.54
COc1ccc(CC(=O)O)cc1-c1ccc(F)c2c1CN(C(=O)C1CCc3ccccc31)CC2 (racemic) [Example 112, (±)-{3-[5-Fluoro-2-(indane-1-carbonyl)-1,2,3,4-tetrahydro-isoquinolin-8-yl]-4-methoxy-phenyl}-acetic acid] | 6.69
COc1ccc(CC(=O)O)cc1-c1ccc(F)c2c1CN(C(=O)C1COc3ccccc3C1)CC2 (racemic) [Example 113, (±)-{3-[2-(Chroman-3-carbonyl)-5-fluoro-1,2,3,4-tetrahydro-isoquinolin-8-yl]-4-methoxy-phenyl}-acetic acid] | 7.73
COc1ccc(CC(=O)O)cc1-c1ccc(F)c2c1CN(C(=O)C1CCc3ccccc3O1)CC2 (racemic) [Example 115, (±)-{3-[2-(Chroman-2-carbonyl)-5-fluoro-1,2,3,4-tetrahydro-isoquinolin-8-yl]-4-methoxy-phenyl}-acetic acid] | 6.76
COc1ccc(C(C)C(=O)O)cc1-c1ccc(F)c2c1CN(C(=O)[C@@H]1C[C@H]1c1ccccc1)CC2 (mixture of isomers) [Example 120, (±)-2-{3-[5-Fluoro-2-((1R,2R)-2-phenyl-cyclopropanecarbonyl)-1,2,3,4-tetrahydro-isoquinolin-8-yl]-4-methoxy-phenyl}-propionic acid] | 8.07
COc1ccc(CC(=O)O)cc1-c1ccc(F)c2c1CN(C(=O)C1CC(=O)c3ccccc31)CC2 (racemic) [Example 122, (±)-{3-[5-Fluoro-2-(3-oxo-indane-1-carbonyl)-1,2,3,4-tetrahydro-isoquinolin-8-yl]-4-methoxy-phenyl}-acetic acid] | 6.06
COc1ccc(C(C)C(=O)O)cc1-c1ccc(F)c2c1CN(C(=O)OCc1ccccc1F)CC2 (racemic) [Example 140, (±)-8-[5-(1-Carboxy-ethyl)-2-methoxy-phenyl]-5-fluoro-3,4-dihydro-1H-isoquinoline-2-carboxylic acid 2-fluoro-benzyl ester] | 7.20
COc1ccc(C(C)C(=O)O)cc1-c1ccc(F)c2c1CN(C(=O)OCc1ccccc1)CC2 (racemic) [Example 171, (±)-8-[5-(1-Carboxy-ethyl)-2-methoxy-phenyl]-5-fluoro-3,4-dihydro-1H-isoquinoline-2-carboxylic acid benzyl ester] | 7.67
CCOc1ccc(CC(=O)O)cc1-c1ccc(F)c2c1CN(C(=O)CC1CCc3ccccc31)CC2 (racemic) [Example 219] | 8.04
CCOc1cc(CC(=O)O)ccc1-c1ccc(F)c2c1CN(C(=O)CC1COCc3ccccc31)CC2 (racemic) [Example 232] | 9.22
CCOc1cc(CC(=O)O)ccc1-c1ccc(F)c2c1CN(C(=O)CC1CCc3ccccc31)CC2 (racemic) [Example 233] | 8.96
COc1ccc(CC(=O)O)cc1-c1ccc(F)c2c1CN(C(=O)CC1(C)CCCc3ccccc31)CC2 (racemic) [Example 239] | 7.55
COc1ccc(CC(=O)O)cc1-c1ccc(F)c2c1CN(C(=O)C1CCc3cccc(OC)c3C1)CC2 (racemic) [Example 241] | 8.08
COc1ccc(CC(=O)O)cc1-c1ccc(F)c2c1CN(C(=O)CC1COc3ccccc3C1)CC2 (racemic) [Example 242] | 8.57

Compound | pIC50
COc1ccc(CC(=O)O)cc1-c1ccc(F)c2c1CN(C(=O)CC1CCOc3ccc(F)cc31)CC2 (racemic) [Example 244] | 6.80
COc1ccc(CC(=O)O)cc1-c1ccc(F)c2c1CN(C(=O)CC(C)C1CC1)CC2 (racemic) [Example 245] | 6.40
COc1ccc(CC(=O)O)cc1-c1ccc(F)c2c1CN(C(=O)CC1CCOc3c(F)cccc31)CC2 (racemic) [Example 246] | 7.65
COc1ccc(CC(=O)O)cc1-c1ccc(F)c2c1CN(C(=O)CC1CCCc3ccncc31)CC2 (racemic) [Example 247, hydrochloride] | 6.32
COc1ccc(CC(=O)O)cc1-c1ccc(F)c2c1CN(C(=O)CC(C)(O)c1ccccc1)CC2 (racemic) [Example 256] | 7.30
COc1ccc(CC(=O)O)cc1-c1ccc(F)c2c1CN(C(=O)CC1c3ccccc3CCN1C)CC2 (racemic) [Example 259] | 6.23
COc1ccc(CC(=O)O)cc1-c1ccc(F)c2c1CN(C(=O)CC(c1ccccc1)C(C)C)CC2 (racemic) [Example 264] | 6.60
COc1ccc(CC(=O)O)cc1-c1ccc(F)c2c1CN(C(=O)CC(C)c1cccnc1)CC2 (racemic) [Example 266, (±)-{3-[5-Fluoro-2-(3-pyridin-3-yl-butyryl)-1,2,3,4-tetrahydro-isoquinolin-8-yl]-4-methoxy-phenyl}-acetic acid formiate] | 7.49
COc1ccc(CC(=O)O)cc1-c1ccc(F)c2c1CN(C(=O)CC(C)c1ccncc1)CC2 (racemic) [Example 267, (±)-{3-[5-Fluoro-2-(3-pyridin-4-yl-butyryl)-1,2,3,4-tetrahydro-isoquinolin-8-yl]-4-methoxy-phenyl}-acetic acid formiate] | 7.06
CCC(CC(=O)N1CCc2c(F)ccc(-c3cc(CC(=O)O)ccc3OC)c2C1)c1ccccc1 (racemic) [Example 268] | 7.20
COc1ccc(CC(=O)O)cc1-c1ccc(F)c2c1CN(C(=O)CC1COc3ccccc31)CC2 (racemic) [Example 270] | 7.60
COc1ccc(CC(=O)O)cc1-c1ccc(F)c2c1CN(C(=O)C1CCOc3ccccc31)CC2 (racemic) [Example 272] | 6.58
COc1ccc(CC(=O)O)cc1-c1ccc(F)c2c1CN(C(=O)C1OCCc3ccccc31)CC2 (racemic) [Example 273] | 6.17
COc1ccc(CC(=O)O)cc1-c1ccc(F)c2c1CN(C(=O)C1Cc3ccccc3CO1)CC2 (racemic) [Example 274] | 7.24
CCOc1ccc(CC(=O)O)cc1-c1ccc(F)c2c1CN(C(=O)CC(C)c1ccccc1F)CC2 (racemic) [Example 280] | 8.47
CCOc1ccc(CC(=O)O)cc1-c1ccc(F)c2c1CN(C(=O)CC(C)c1cnccn1)CC2 (racemic) [Example 281] | 7.56
CCOc1ccc(CC(=O)O)cc1-c1ccc(F)c2c1CN(C(=O)CC(C)c1ccccc1OC)CC2 (racemic) [Example 282] | 8.66
CCOc1ccc(CC(=O)O)cc1-c1ccc(F)c2c1CN(C(=O)CC(C)c1nccs1)CC2 (racemic) [Example 283] | 8.14
CCOc1ccc(CC(=O)O)cc1-c1ccc(F)c2c1CN(C(=O)CC1CC(C)(C)Oc3ncccc31)CC2 (racemic) [Example 284] | 8.62
